One may read the EC50 as the concentration that produces a half-maximal response. Read a low EC50 as greater potency.

In this experiment the test system is HBV. Description: HBV inhibition assay in HepG2.2.15 cells (extracellular HBV DNA by qPCR). It counts as cell-based. The following applies: Hepatitis B virus, 120 h, extracellular HBV DNA in culture supernatant by qPCR, five days after compound treatment. An excerpt:
Example 19: HBV Inhibition Assays
Cell Line and Culture Conditions:
HepG2.2.15 is a stably-transfected cell line containing the HBV genome. It is derived from the hepatoblastoma cell line Hep G2 (American Type Culture Collection, ATCC® HB-8065™) by the published procedures described in reference: MA Selles et al. Proc. Natl. Acad. Sci. USA 1987, 84, 1005-1009. The cell line was maintained in Dulbecco's modified Eagle's medium and nutrient mixture F-12 (DMEM/F-12, Gibco, Cat. #: 11320-033) supplemented with 10% fetal bovine serum (Gibco, Cat. #: 10099-141), 100 U/mL penicillin, 100 μg/mL streptomycin (Gibco, Cat. #: 15140-122), and 0.3 mg/mL of G418 Sulfate (Gibco, Cat. #: 10131-027).
Anti-HBV Activity In Vitro:
HepG2.2.15 cells were seeded into 96-well plates at a density of 3×10^4 cells per well in culture media of 100 μL DMEM/F-12 supplemented with 2.5% fetal bovine serum, 100 U/mL penicillin, 100 μg/mL streptomycin and cultured overnight at 37° C. The test compounds were serially half-log diluted in DMSO, then diluted 100 times in culture media. 100 μL culture media containing diluted compounds were added into the plates to reach 0.5% final concentration of DMSO in every well. Five days after compound treatment, culture supernatant was collected for further analysis.
For quantitative PCR detection of extracellular HBV DNA, culture supernatant was processed by 500 μg/mL Proteinase K (Sigma, Cat. #: P2308) digestion at 50° C. for 1 hour. After heat inactivation of the enzyme at 95° C. for 15 minutes, the samples were subjected to HBV DNA quantification by qPCR. The effective compound concentration at which HBV replication was inhibited by 50% (EC50) was determined.
On the technique in general: In qPCR the cycle at which signal appears reflects the starting amount.

In turn, `O=C(Nc1cc(F)c(F)c(F)c1)C1CCn2ncc(N3CCCC3=O)c2C1` (centres unmarked) [Example 1, 3-(2-oxopyrrolidin-1-yl)-N-(3,4,5-trifluorophenyl)-4,5,6,7-tetrahydropyrazolo[1,5-a]pyridine-5-carboxamide] had an EC50 of 370 nM.

In the case of `CC1(C)CN(c2cnn3c2CC(C(=O)Nc2cc(F)c(F)c(F)c2)CC3)C(=O)O1` (centres unmarked) [Example 2, 3-(5,5-dimethyl-2-oxo-oxazolidin-3-yl)-N-(3,4,5-trifluorophenyl)-4,5,6,7-tetrahydropyrazolo[1,5-a]pyridine-5-carboxamide], the response was half-maximal at 300 nM (EC50).

The compound `O=C(Nc1cc(F)c(F)c(F)c1)C1CCn2ncc(-c3ccc(F)cc3F)c2C1` (centres unmarked) [Example 3, 3-(2,4-difluorophenyl)-N-(3,4,5-trifluorophenyl)-4,5,6,7-tetrahydropyrazolo[1,5-a]pyridine-5-carboxamide] displayed an EC50 of 160 nM.

Consider `O=C(Nc1cc(F)c(F)c(F)c1)C1CCn2ncc(C3CCCC3)c2C1` (centres unmarked) [Example 4, 3-cyclopentyl-N-(3,4,5-trifluorophenyl)-4,5,6,7-tetrahydropyrazolo[1,5-a]pyridine-5-carboxamide], for which the EC50 worked out at 150 nM.

`O=C(Nc1cc(F)c(F)c(F)c1)C1CCn2ncc(N3CCCS3(=O)=O)c2C1` (centres unmarked) [Example 5, 3-(1,1-dioxo-1,2-thiazolidin-2-yl)-N-(3,4,5-trifluorophenyl)-4,5,6,7-tetrahydropyrazolo[1,5-a]pyridine-5-carboxamide] had an EC50 of 39 nM.

In the case of `O=C(Nc1cc(F)c(F)c(F)c1)C1CCn2ncc(N3CCN(Cc4ccccc4)S3(=O)=O)c2C1` (centres unmarked) [Example 6, 3-(5-benzyl-1,1-dioxo-1,2,5-thiadiazolidin-2-yl)-N-(3,4,5-trifluorophenyl)-4,5,6,7-tetrahydropyrazolo[1,5-a]pyridine-5-carboxamide], the EC50 was determined as 240 nM.

Take `O=C(Nc1cc(F)c(F)c(F)c1)C1CCn2ncc(N3CCNS3(=O)=O)c2C1` (centres unmarked) [Example 7, 3-(1,1-dioxo-1,2,5-thiadiazolidin-2-yl)-N-(3,4,5-trifluorophenyl)-4,5,6,7-tetrahydropyrazolo[1,5-a]pyridine-5-carboxamide]: the response was half-maximal at 110 nM (EC50).

Turning to `N#CC1CC(=O)N(c2cnn3c2CC(C(=O)Nc2cc(F)c(F)c(F)c2)CC3)C1` (centres unmarked) [Example 8, 3-(4-cyano-2-oxo-pyrrolidin-1-yl)-N-(3,4,5-trifluorophenyl)-4,5,6,7-tetrahydropyrazolo[1,5-a]pyridine-5-carboxamide], it took 190 nM to reach a half-maximal effect (EC50).

For the compound `O=C(Nc1cc(F)c(F)c(F)c1)C1CCn2ncc(N3CCOCC3=O)c2C1` (centres unmarked) [Example 9, 3-(3-oxomorpholin-4-yl)-N-(3,4,5-trifluorophenyl)-4,5,6,7-tetrahydropyrazolo[1,5-a]pyridine-5-carboxamide], the response was half-maximal at 840 nM (EC50). This EC50 lies about 4.4-fold higher than the previous one.

`Cc1noc(C2CC(=O)N(c3cnn4c3CC(C(=O)Nc3cc(F)c(F)c(F)c3)CC4)C2)n1` (centres unmarked) [Example 10, 3-[4-(3-methyl-1,2,4-oxadiazol-5-yl)-2-oxo-pyrrolidin-1-yl]-N-(3,4,5-trifluorophenyl)-4,5,6,7-tetrahydropyrazolo[1,5-a]pyridine-5-carboxamide] returned a 50% effective concentration (EC50) of 330 nM.

On to `O=C(Nc1ccsc1)C1CCn2ncc(-c3ccc(F)cc3F)c2C1` (centres unmarked) [Example 11, 3-(2,4-difluorophenyl)-N-(3-thienyl)-4,5,6,7-tetrahydropyrazolo[1,5-a]pyridine-5-carboxamide], for which the EC50 came to 590 nM.

In turn, `O=C(Nc1ccc(F)c(C(F)(F)F)c1)C1CCn2ncc(-c3ccc(F)cc3F)c2C1` (centres unmarked) [Example 12, 3-(2,4-difluorophenyl)-N-[4-fluoro-3-(trifluoromethyl)phenyl]-4,5,6,7-tetrahydropyrazolo[1,5-a]pyridine-5-carboxamide] had an EC50 of 870 nM.

For the compound `N#Cc1cc(NC(=O)C2CCn3ncc(-c4ccc(F)cc4F)c3C2)ccc1F` (centres unmarked) [Example 13, N-(3-cyano-4-fluoro-phenyl)-3-(2,4-difluorophenyl)-4,5,6,7-tetrahydropyrazolo[1,5-a]pyridine-5-carboxamide], the response was half-maximal at 210 nM (EC50).

The compound `Cc1cc(NC(=O)C2CCn3ncc(-c4ccc(F)cc4F)c3C2)ccc1F` (centres unmarked) [Example 14, 3-(2,4-difluorophenyl)-N-(4-fluoro-3-methyl-phenyl)-4,5,7-tetrahydropyrazolo[1,5-a]pyridine-5-carboxamide] came in with a 50% effective concentration (EC50) of 89 nM.

Take `O=C(Nc1cc(F)nc(F)c1)C1CCn2ncc(-c3ccc(F)cc3F)c2C1` (centres unmarked) [Example 15, 3-(2,4-difluorophenyl)-N-(2,6-difluoro-4-pyridyl)-4,5,6,7-tetrahydropyrazolo[1,5-a]pyridine-5-carboxamide]: a half-maximal effect (EC50) was put at 450 nM.

In turn, `O=C(Nc1ccnc(F)c1)C1CCn2ncc(-c3ccc(F)cc3F)c2C1` (centres unmarked) [Example 16, 3-(2,4-difluorophenyl)-N-(2-fluoro-4-pyridyl)-4,5,6,7-tetrahydropyrazolo[1,5-a]pyridine-5-carboxamide] had a 50% effective concentration (EC50) of 350 nM. This EC50 and that of the compound before are within 1.5-fold of each other.

`Cc1nc(C2CC(=O)N(c3cnn4c3CC(C(=O)Nc3cc(F)c(F)c(F)c3)CC4)C2)no1` (centres unmarked) [Example 18, 3-[4-(5-methyl-1,2,4-oxadiazol-3-yl)-2-oxo-pyrrolidin-1-yl]-N-(3,4,5-trifluorophenyl)-4,5,6,7-tetrahydropyrazolo[1,5-a]pyridine-5-carboxamide] registered an EC50 of 390 nM.

For the origin of these results see patent publication US10781206B2, “Tetrahydropyrazolopyridine compounds for the treatment of infectious diseases” (Hoffmann-La Roche Inc., priority 2017, dated 2020).
